The values that follow are results of earlier work, collected in patent publication US9795715B2, “Bone tissue engineering by ex vivo stem cells ongrowth into three-dimensional trabecular metal” (Zimmer Trabecular Metal Technology, Inc., priority 2004, dated 2017).

The test system of this data set is porcine embryos. As to conditions: 0.5 mg/mL.

On to hyaluronan, for which the “development of porcine embryos in culture” value was “increase the development of porcine embryos”.
